According to PubChem BioAssay AID1259407 (Chemical Carcinogenesis Research Information System (CCRIS), 2018):
The source made the active and inactive calls. No rule for the calls is given here.

Test system: CCRIS mutagenicity, Ames/micronucleus/aberration tests
Assay: CCRIS mutagenicity studies
[1] = Test System: AMES SALMONELLA TYPHIMURIUM, Strain/Indicator: TA97, Metabolic Activation: NONE, Method: PREINCUBATION
[2] = Test System: AMES SALMONELLA TYPHIMURIUM, Strain/Indicator: TA98, Metabolic Activation: NONE, Method: PREINCUBATION
[3] = Test System: AMES SALMONELLA TYPHIMURIUM, Strain/Indicator: TA100, Metabolic Activation: NONE, Method: PREINCUBATION
[4] = Test System: AMES SALMONELLA TYPHIMURIUM, Strain/Indicator: TA1535, Metabolic Activation: HAMSTER, LIVER, S-9, AROCLOR 1254 (10 OR 30%), Method: PREINCUBATION
[5] = Test System: AMES SALMONELLA TYPHIMURIUM, Strain/Indicator: TA1535, Metabolic Activation: NONE, Method: PREINCUBATION
[6] = Test System: AMES SALMONELLA TYPHIMURIUM, Strain/Indicator: TA1535, Metabolic Activation: RAT, LIVER, S-9, AROCLOR 1254 (10 OR 30%), Method: PREINCUBATION
[7] = Test System: AMES SALMONELLA TYPHIMURIUM, Strain/Indicator: TA1537, Metabolic Activation: HAMSTER, LIVER, S-9, AROCLOR 1254 (30%), Method: PREINCUBATION
[8] = Test System: AMES SALMONELLA TYPHIMURIUM, Strain/Indicator: TA1537, Metabolic Activation: NONE, Method: PREINCUBATION
[9] = Test System: AMES SALMONELLA TYPHIMURIUM, Strain/Indicator: TA1537, Metabolic Activation: RAT, LIVER, S-9, AROCLOR 1254 (30%), Method: PREINCUBATION

Question: With `CCCCCCCCC` as the compound, how does the mutagenic call (Test System: AMES SALMONELLA TYPHIMURIUM, Strain/Indicator: TA97, Metabolic Activation: HAMSTER, LIVER, S-9, AROCLOR 1254 (10 OR 30%), Method: PREINCUBATION) read?
Answer: The mutagenic call was “inactive; negative”.

Question: And the mutagenic call [1]?
Answer: The mutagenic call was “inactive; negative”.

Question: What about the mutagenic call (Test System: AMES SALMONELLA TYPHIMURIUM, Strain/Indicator: TA97, Metabolic Activation: RAT, LIVER, S-9, AROCLOR 1254 (10 OR 30%), Method: PREINCUBATION) of the same compound?
Answer: Its mutagenic call is “inactive; negative”.

Question: What about the mutagenic call (Test System: AMES SALMONELLA TYPHIMURIUM, Strain/Indicator: TA98, Metabolic Activation: HAMSTER, LIVER, S-9, AROCLOR 1254 (10 OR 30%), Method: PREINCUBATION) of the same compound?
Answer: The mutagenic call was “inactive; negative”.

Question: And the mutagenic call [2]?
Answer: Its mutagenic call is “inactive; negative”.

Question: What about the mutagenic call (Test System: AMES SALMONELLA TYPHIMURIUM, Strain/Indicator: TA98, Metabolic Activation: RAT, LIVER, S-9, AROCLOR 1254 (10 OR 30%), Method: PREINCUBATION) of the same compound?
Answer: Its mutagenic call is “inactive; negative”.

Question: What about the mutagenic call (Test System: AMES SALMONELLA TYPHIMURIUM, Strain/Indicator: TA100, Metabolic Activation: HAMSTER, LIVER, S-9, AROCLOR 1254 (10 OR 30%), Method: PREINCUBATION) of the same compound?
Answer: Its mutagenic call is “inactive; negative”.

Question: What about the mutagenic call [3] of the same compound?
Answer: Its mutagenic call is “inactive; negative”.

Question: And the mutagenic call (Test System: AMES SALMONELLA TYPHIMURIUM, Strain/Indicator: TA100, Metabolic Activation: RAT, LIVER, S-9, AROCLOR 1254 (10 OR 30%), Method: PREINCUBATION)?
Answer: Its mutagenic call is “inactive; negative”.

Question: And the mutagenic call [4]?
Answer: The mutagenic call was “inactive; negative”.

Question: What about the mutagenic call [5] of the same compound?
Answer: The mutagenic call was “inactive; negative”.

Question: What about the mutagenic call [6] of the same compound?
Answer: The mutagenic call was “inactive; negative”.

Question: And the mutagenic call [7]?
Answer: Its mutagenic call is “inactive; negative”.

Question: And the mutagenic call [8]?
Answer: The mutagenic call was “inactive; negative”.

Question: And the mutagenic call [9]?
Answer: Its mutagenic call is “inactive; negative”.

Question: `CC(C)=CCCC(C)CCO` (configuration not stated) was tested. Which mutagenic call (Test System: AMES SALMONELLA TYPHIMURIUM, Strain/Indicator: TA98, Metabolic Activation: NONE, Method: STANDARD PLATE) did it give?
Answer: Its mutagenic call is “inactive; negative”.

Question: And the mutagenic call (Test System: AMES SALMONELLA TYPHIMURIUM, Strain/Indicator: TA98, Metabolic Activation: S-9, Method: STANDARD PLATE)?
Answer: Its mutagenic call is “inactive; negative”.

Question: And the mutagenic call (Test System: AMES SALMONELLA TYPHIMURIUM, Strain/Indicator: TA100, Metabolic Activation: NONE, Method: STANDARD PLATE)?
Answer: The mutagenic call was “inactive; negative”.

Question: For `C1COC1`, which mutagenic call (Test System: AMES SALMONELLA TYPHIMURIUM, Strain/Indicator: TA97, Metabolic Activation: HAMSTER, LIVER, S-9, AROCLOR 1254 (30%), Method: PREINCUBATION) is on record?
Answer: The mutagenic call was “inactive; negative”.

Question: What about the mutagenic call [1] of the same compound?
Answer: Its mutagenic call is “inactive; negative”.

Question: What about the mutagenic call (Test System: AMES SALMONELLA TYPHIMURIUM, Strain/Indicator: TA97, Metabolic Activation: RAT, LIVER, S-9, AROCLOR 1254 (30%), Method: PREINCUBATION) of the same compound?
Answer: Its mutagenic call is “inactive; negative”.

Question: What about the mutagenic call (Test System: AMES SALMONELLA TYPHIMURIUM, Strain/Indicator: TA98, Metabolic Activation: HAMSTER, LIVER, S-9, AROCLOR 1254 (30%), Method: PREINCUBATION) of the same compound?
Answer: Its mutagenic call is “inactive; negative”.

Question: What about the mutagenic call [2] of the same compound?
Answer: Its mutagenic call is “inactive; negative”.

Question: What about the mutagenic call (Test System: AMES SALMONELLA TYPHIMURIUM, Strain/Indicator: TA98, Metabolic Activation: RAT, LIVER, S-9, AROCLOR 1254 (30%), Method: PREINCUBATION) of the same compound?
Answer: The mutagenic call was “inactive; negative”.

Question: What about the mutagenic call (Test System: AMES SALMONELLA TYPHIMURIUM, Strain/Indicator: TA100, Metabolic Activation: HAMSTER, LIVER, S-9, AROCLOR 1254 (30%), Method: PREINCUBATION) of the same compound?
Answer: The mutagenic call was “inactive; negative”.

Question: And the mutagenic call [3]?
Answer: The mutagenic call was “inactive; negative”.

Question: And the mutagenic call (Test System: AMES SALMONELLA TYPHIMURIUM, Strain/Indicator: TA100, Metabolic Activation: RAT, LIVER, S-9, AROCLOR 1254 (30%), Method: PREINCUBATION)?
Answer: The mutagenic call was “inactive; negative”.

Question: What about the mutagenic call [4] of the same compound?
Answer: The mutagenic call was “active; positive”.

Question: And the mutagenic call [5]?
Answer: Its mutagenic call is “inactive; negative”.

Question: And the mutagenic call [6]?
Answer: Its mutagenic call is “active; positive”.

Question: And the mutagenic call [7]?
Answer: The mutagenic call was “inactive; negative”.

Question: And the mutagenic call [8]?
Answer: The mutagenic call was “inactive; negative”.

Question: What about the mutagenic call [9] of the same compound?
Answer: The mutagenic call was “inactive; negative”.

Question: `CC(=O)OCC(O)CO` (configuration not stated) was tested. Which mutagenic call (End Point: IN VITRO CHROMOSOMAL ABERRATIONS, Test System: CHO CELLS, Metabolic Activation: NONE) did it give?
Answer: Its mutagenic call is “inactive; negative”.

Question: What about the mutagenic call (End Point: IN VITRO CHROMOSOMAL ABERRATIONS, Test System: CHO CELLS, Metabolic Activation: RAT, LIVER, S-9, AROCLOR 1254) of the same compound?
Answer: The mutagenic call was “inactive; negative”.

Question: What about the mutagenic call (Test System: AMES SALMONELLA TYPHIMURIUM, Strain/Indicator: TA98, Metabolic Activation: HAMSTER, LIVER, S-9, AROCLOR 1254, Method: PREINCUBATION) of the same compound?
Answer: Its mutagenic call is “inactive; negative”.

Question: And the mutagenic call [2]?
Answer: The mutagenic call was “inactive; negative”.

Question: What about the mutagenic call (Test System: AMES SALMONELLA TYPHIMURIUM, Strain/Indicator: TA98, Metabolic Activation: RAT, LIVER, S-9, AROCLOR 1254, Method: PREINCUBATION) of the same compound?
Answer: The mutagenic call was “inactive; negative”.

Question: And the mutagenic call (Test System: AMES SALMONELLA TYPHIMURIUM, Strain/Indicator: TA100, Metabolic Activation: HAMSTER, LIVER, S-9, AROCLOR 1254, Method: PREINCUBATION)?
Answer: Its mutagenic call is “inactive; negative”.

Question: What about the mutagenic call [3] of the same compound?
Answer: Its mutagenic call is “inactive; negative”.

Question: What about the mutagenic call (Test System: AMES SALMONELLA TYPHIMURIUM, Strain/Indicator: TA100, Metabolic Activation: RAT, LIVER, S-9, AROCLOR 1254, Method: PREINCUBATION) of the same compound?
Answer: The mutagenic call was “inactive; negative”.

Question: And the mutagenic call (Test System: AMES SALMONELLA TYPHIMURIUM, Strain/Indicator: TA1535, Metabolic Activation: HAMSTER, LIVER, S-9, AROCLOR 1254, Method: PREINCUBATION)?
Answer: The mutagenic call was “active; positive”.

Question: What about the mutagenic call [5] of the same compound?
Answer: The mutagenic call was “active; positive”.

Question: What about the mutagenic call (Test System: AMES SALMONELLA TYPHIMURIUM, Strain/Indicator: TA1535, Metabolic Activation: RAT, LIVER, S-9, AROCLOR 1254, Method: PREINCUBATION) of the same compound?
Answer: Its mutagenic call is “active; positive”.

Question: And the mutagenic call (Test System: AMES SALMONELLA TYPHIMURIUM, Strain/Indicator: TA1537, Metabolic Activation: HAMSTER, LIVER, S-9, AROCLOR 1254, Method: PREINCUBATION)?
Answer: Its mutagenic call is “inactive; negative”.

Question: And the mutagenic call [8]?
Answer: Its mutagenic call is “inactive; negative”.

Question: What about the mutagenic call (Test System: AMES SALMONELLA TYPHIMURIUM, Strain/Indicator: TA1537, Metabolic Activation: RAT, LIVER, S-9, AROCLOR 1254, Method: PREINCUBATION) of the same compound?
Answer: The mutagenic call was “inactive; negative”.
